Results on 68 sequences are retold here after the supplement of paper PMC11208160.

The nature of this data set: recombinant UMI read abundance after kanamycin selection (control-corrected) (log10(CPM+1)); higher = more efficient recombination; extreme values may be limits of the assay; sequences stand for … in AGTGCAGAGAAAATCGGCCAGTTTTCTCTGCCTGCAGTCCGCATGCCGTGGGACCCCTTGGGTTCTAACCTGTTGCCTAGATTTATGCAGCGGACTGCCTTTCTCCCAAAGTGATAAACCGG…AGGTTGGTTTCACT; site = the 11-nt donor. The gist of the method: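 Two replicates each of selected and unselected plating were used in this pooled Escherichia coli screen of donor and donor-binding-loop pairs for the IS621 bridge recombinase. Selection was with IPTG (0.07 mM) and kanamycin. Counts of recombinant UMIs, amplified across the donor–target junction, were converted to CPM, averaged, scaled by control-derived factors and reported as log10(CPM+1).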
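Also: IS621 bridge recombinase in Escherichia coli cells against a fixed T5 target plasmid.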

“CTACTAACATGGACCGGTTTTCCCGGTAATCCGTATTTGGA (site CTACTTACTTC)”: the “recombinant UMI read abundance (log10)” value amounted to 0.176.
The figure for “CTACTAACATGGACCGGTTTTCCCGGTAATCCGTATTTGGA (site CTAGTAACTTC)” is 0.141.
The value for “CTACTAACATGGACCGGTTTTCCCGGTAATCCGTATTTGGA (site CTATTAACTTC)” was 1.29; that for “CTACTAACATGGACCGGTTTTCCCGGTAATCCGTATTTGGA (site CTCCTAACTTC)” was 0.373; that for “CTACTAACATGGACCGGTTTTCCCGGTAATCCGTATTTGGA (site CTGCTAACTTC)” was 0.331.
As for “CTACTAACATGGACCGGTTTTCCCGGTAATCCGTATTTGGA (site CTTCTAACTTC)”, the “recombinant UMI read abundance (log10)” value was 0.11.
The figure for “CTACTAACATGGACCGGTTTTCCCGGTAATCCGTATTTGGA (site GTACTAACTTC)” is 0.0739; for “CTACTAACATGGACCGGTTTTCCCGGTAATCCGTATTTGGA (site TTACTAACTTC)” it is 0.417; for “CTACTAGCATGGACCGGTTTTCCCGGTAATCCGTATTTGAC (site CTACTAGCTGT)” it is 2.64.
With “CTACTAGCATGGACCGGTTTTCCCGGTAATCCGTATTTGAC (site CTAGTATCTGT)”, the “recombinant UMI read abundance (log10)” value was determined as 0.
The value for “CTACTATCATGGACCGGTTTTCCCGGTAATCCGTATTTGAA (site CTACTATCTTT)” was 2.45.
Regarding “CTACTATCATGGACCGGTTTTCCCGGTAATCCGTATTTGAA (site CTAGTATCTGT)”, the “recombinant UMI read abundance (log10)” value was found to be 0.
For the sequence “CTACTCACATGGACCGGTTTTCCCGGTAATCCGTATTTGGA (site CTACTAACTTC)”, the “recombinant UMI read abundance (log10)” value came out at 0.63.
The value for “CTACTCACATGGACCGGTTTTCCCGGTAATCCGTATTTGGA (site CTACTCACTTC)” was 2.16.
Turning to “CTACTCACATGGACCGGTTTTCCCGGTAATCCGTATTTGGA (site CTACTGACTTC)”, the “recombinant UMI read abundance (log10)” value was found to be 0.0219.
The figure for “CTACTCACATGGACCGGTTTTCCCGGTAATCCGTATTTGGA (site CTACTTACTTC)” is 0.361; for “CTAGAAACATGGACCGGTTTTCCCGGTAATCCGTATTTGAC (site CTAGAAACTGT)” it is 2.76.
The figure for “CTAGAAACATGGACCGGTTTTCCCGGTAATCCGTATTTGAC (site CTAGTATCTGT)” is 0.00659; for “CTAGAAACATGGACCGGTTTTCCCGGTAATCCGTATTTGCA (site CTAGAAACTTG)” it is 2.59; for “CTAGAAACATGGACCGGTTTTCCCGGTAATCCGTATTTGCA (site CTCGAAACTTG)” it is 0.
The value for “CTAGAAACATGGACCGGTTTTCCCGGTAATCCGTATTTGCA (site CTGGAAACTTG)” was 1.83; that for “CTAGAAACATGGACCGGTTTTCCCGGTAATCCGTATTTGCA (site CTTGAAACTTG)” was 0.422; that for “CTAGAATCATGGACCGGTTTTCCCGGTAATCCGTATTTGAG (site CTAGAATCTCT)” was 3.11.
Take “CTAGAATCATGGACCGGTTTTCCCGGTAATCCGTATTTGAG (site CTAGTATCTGT)”: the “recombinant UMI read abundance (log10)” value stood at 0.
The figure for “CTAGACCCATGGACCGGTTTTCCCGGTAATCCGTATTTGGA (site CTAGACCCTTC)” is 0.351; for “CTAGATTCATGGACCGGTTTTCCCGGTAATCCGTATTTGGA (site CTAGATTCTTC)” it is 2.84; for “CTAGCATCATGGACCGGTTTTCCCGGTAATCCGTATTTGCC (site CTAGCATCTGG)” it is 2.4.
As for “CTAGCATCATGGACCGGTTTTCCCGGTAATCCGTATTTGCC (site CTAGTATCTGT)”, the “recombinant UMI read abundance (log10)” value is 0.
The value for “CTAGCCACATGGACCGGTTTTCCCGGTAATCCGTATTTGGA (site GACCAATCTAA)” was 0; that for “CTAGCTGCATGGACCGGTTTTCCCGGTAATCCGTATTTGTG (site ATAGCTGCTCA)” was 0.0231; that for “CTAGCTGCATGGACCGGTTTTCCCGGTAATCCGTATTTGTG (site CTAGCTGCTCA)” was 1.75.
In the case of “CTAGCTGCATGGACCGGTTTTCCCGGTAATCCGTATTTGTG (site GTAGCTGCTCA)”, the “recombinant UMI read abundance (log10)” value came to 0.0102.
The value for “CTAGCTGCATGGACCGGTTTTCCCGGTAATCCGTATTTGTG (site TTAGCTGCTCA)” was 0.0211; that for “CTAGCTTCATGGACCGGTTTTCCCGGTAATCCGTATTTGTG (site CTAGCTTCTCA)” was 2.19; that for “CTAGGTGCATGGACCGGTTTTCCCGGTAATCCGTATTTGAT (site CAAGGTGCTAT)” was 1.59.
Regarding “CTAGGTGCATGGACCGGTTTTCCCGGTAATCCGTATTTGAT (site CCAGGTGCTAT)”, the “recombinant UMI read abundance (log10)” value turned out to be 1.39.
The figure for “CTAGGTGCATGGACCGGTTTTCCCGGTAATCCGTATTTGAT (site CGAGGTGCTAT)” is 0.0806; for “CTAGGTGCATGGACCGGTTTTCCCGGTAATCCGTATTTGAT (site CTAGGTGCTAT)” it is 2.14; for “CTAGTAACATGGACCGGTTTTCCCGGTAATCCGTATTTGAC (site CTAGTAACTGT)” it is 3.1.
The value for “CTAGTAACATGGACCGGTTTTCCCGGTAATCCGTATTTGAC (site CTAGTACCTGT)” was 0; that for “CTAGTAACATGGACCGGTTTTCCCGGTAATCCGTATTTGAC (site CTAGTAGCTGT)” was 2.73; that for “CTAGTAACATGGACCGGTTTTCCCGGTAATCCGTATTTGAC (site CTAGTATCTGT)” was 1.83.
“CTAGTCACATGGACCGGTTTTCCCGGTAATCCGTATTTGAC (site CTAGTATCTGT)”: the “recombinant UMI read abundance (log10)” value was determined as 0.
For “CTAGTCACATGGACCGGTTTTCCCGGTAATCCGTATTTGAC (site CTAGTCACTGT)”, the “recombinant UMI read abundance (log10)” value is 2.59.
For “CTAGTTTCATGGACCGGTTTTCCCGGTAATCCGTATTTGAA (site CTAGTATCTGT)”, the “recombinant UMI read abundance (log10)” value was found to be 0.
The figure for “CTAGTTTCATGGACCGGTTTTCCCGGTAATCCGTATTTGAA (site CTAGTTTCTTT)” is 1.85; for “CTAGTTTCATGGACCGGTTTTCCCGGTAATCCGTATTTGCC (site CTAGTATCTGT)” it is 0.
In the case of “CTAGTTTCATGGACCGGTTTTCCCGGTAATCCGTATTTGCC (site CTAGTTTCTGG)”, the “recombinant UMI read abundance (log10)” value worked out at 2.53.
The figure for “CTATAATCATGGACCGGTTTTCCCGGTAATCCGTATTTGCT (site CGATCATCTAG)” is 0; for “CTATAATCATGGACCGGTTTTCCCGGTAATCCGTATTTGCT (site CTATAATCTAG)” it is 3.13; for “CTATATCCATGGACCGGTTTTCCCGGTAATCCGTATTTGAG (site CTATATCCTCT)” it is 1.41.
The figure for “CTATCCTCATGGACCGGTTTTCCCGGTAATCCGTATTTGCT (site CGATCATCTAG)” is 0; for “CTATCCTCATGGACCGGTTTTCCCGGTAATCCGTATTTGCT (site CTATCCTCTAG)” it is 3.09; for “CTATCCTCATGGACCGGTTTTCCCGGTAATCCGTATTTGTT (site CTATCCTCTAA)” it is 2.79.
Turning to “CTATTAACATGGACCGGTTTTCCCGGTAATCCGTATTTGGA (site CTAATAACTTC)”, the “recombinant UMI read abundance (log10)” value stood at 0.484.
Regarding “CTATTAACATGGACCGGTTTTCCCGGTAATCCGTATTTGGA (site CTACTAACTTC)”, the “recombinant UMI read abundance (log10)” value was found to be 0.342.
For the sequence “CTATTAACATGGACCGGTTTTCCCGGTAATCCGTATTTGGA (site CTAGTAACTTC)”, the “recombinant UMI read abundance (log10)” value came to 0.397.
Regarding “CTATTAACATGGACCGGTTTTCCCGGTAATCCGTATTTGGA (site CTATTAACTTC)”, the “recombinant UMI read abundance (log10)” value was determined as 1.64.
The figure for “CTATTGGCATGGACCGGTTTTCCCGGTAATCCGTATTTGTA (site CTATTGGCTTA)” is 1.84; for “CTATTGTCATGGACCGGTTTTCCCGGTAATCCGTATTTGAC (site CTAGTATCTGT)” it is 0.
With “CTATTGTCATGGACCGGTTTTCCCGGTAATCCGTATTTGAC (site CTATTGTCTGT)”, the “recombinant UMI read abundance (log10)” value amounted to 0.
The figure for “CTCAAAGCATGGACCGGTTTTCCCGGTAATCCGTATTTGCG (site CTCAAAGCTCG)” is 0.762; for “CTCAGCCCATGGACCGGTTTTCCCGGTAATCCGTATTTGCC (site CTCAGCCCTGG)” it is 0.
Turning to “CTCAGCTCATGGACCGGTTTTCCCGGTAATCCGTATTTGAA (site CTCAGCTCTTT)”, the “recombinant UMI read abundance (log10)” value stood at 2.08.
The figure for “CTCATTCCATGGACCGGTTTTCCCGGTAATCCGTATTTGCT (site CTCATTCCTAG)” is 0.523; for “CTCCAAACATGGACCGGTTTTCCCGGTAATCCGTATTTGGC (site CTCCAAACTGC)” it is 0.
The figure for “CTCCAACCATGGACCGGTTTTCCCGGTAATCCGTATTTGCC (site CTCCAACCTGG)” is 0; for “CTCCATGCATGGACCGGTTTTCCCGGTAATCCGTATTTGTC (site CTCCATGCTGA)” it is 2.3.
